Assay results reported in ChEMBL document CHEMBL4814003, “Novel dual-mode antitumor chlorin-based derivatives as potent photosensitizers and histone deacetylase inhibitors for photodynamic therapy and chemotherapy” (Eur J Med Chem, 2021).
Activity calls are given as the source filed them. The rule behind the calls is not given here.

Experiments:
Histone deacetylase 1 [1] = biological target: T1, Histone deacetylase 1 (Homo sapiens, UniProt Q13547); assay: Inhibition of human recombinant HDAC1 using Ac-Leu-Gly-Lys(Ac)-AMC as substrate by measuring fluorescence intensity incubated for 30 mins by microplate reader assay
A549 [2] = assay: Dark toxicity in human A549 cells assessed as reduction in cell viability incubated under dark for 48 hrs measured after 48 hrs by CCK8 assay; type: functional, cell-based; conditions: A549, 48 h
HCT-116 [3] = assay: Dark toxicity in human HCT-116 cells assessed as reduction in cell viability incubated under dark for 48 hrs measured after 48 hrs by CCK8 assay; type: functional, cell-based; conditions: HCT-116, 48 h
HCT-116 [4] = assay: Phototoxicity in human HCT-116 cells assessed as reduction in cell viability irradiated 10 j/cm2 for 24 hrs followed by incubated for 24 hrs by CCK8 assay; type: functional, cell-based; conditions: HCT-116, light or radiation study
Histone deacetylase 2 = Histone deacetylase 2 (Homo sapiens, UniProt Q92769); assay: Inhibition of human recombinant HDAC2 using Ac-Leu-Gly-Lys(Ac)-AMC as substrate by measuring fluorescence intensity incubated for 30 mins by microplate reader assay
[5] = biological target: T2, Protein deacetylase HDAC6 (Homo sapiens, UniProt Q9UBN7); assay: Inhibition of human recombinant HDAC6 using Ac-Leu-Gly-Lys(Ac)-AMC as substrate by measuring fluorescence intensity incubated for 30 mins by microplate reader assay
T2 sequence (Q9UBN7 whole entry): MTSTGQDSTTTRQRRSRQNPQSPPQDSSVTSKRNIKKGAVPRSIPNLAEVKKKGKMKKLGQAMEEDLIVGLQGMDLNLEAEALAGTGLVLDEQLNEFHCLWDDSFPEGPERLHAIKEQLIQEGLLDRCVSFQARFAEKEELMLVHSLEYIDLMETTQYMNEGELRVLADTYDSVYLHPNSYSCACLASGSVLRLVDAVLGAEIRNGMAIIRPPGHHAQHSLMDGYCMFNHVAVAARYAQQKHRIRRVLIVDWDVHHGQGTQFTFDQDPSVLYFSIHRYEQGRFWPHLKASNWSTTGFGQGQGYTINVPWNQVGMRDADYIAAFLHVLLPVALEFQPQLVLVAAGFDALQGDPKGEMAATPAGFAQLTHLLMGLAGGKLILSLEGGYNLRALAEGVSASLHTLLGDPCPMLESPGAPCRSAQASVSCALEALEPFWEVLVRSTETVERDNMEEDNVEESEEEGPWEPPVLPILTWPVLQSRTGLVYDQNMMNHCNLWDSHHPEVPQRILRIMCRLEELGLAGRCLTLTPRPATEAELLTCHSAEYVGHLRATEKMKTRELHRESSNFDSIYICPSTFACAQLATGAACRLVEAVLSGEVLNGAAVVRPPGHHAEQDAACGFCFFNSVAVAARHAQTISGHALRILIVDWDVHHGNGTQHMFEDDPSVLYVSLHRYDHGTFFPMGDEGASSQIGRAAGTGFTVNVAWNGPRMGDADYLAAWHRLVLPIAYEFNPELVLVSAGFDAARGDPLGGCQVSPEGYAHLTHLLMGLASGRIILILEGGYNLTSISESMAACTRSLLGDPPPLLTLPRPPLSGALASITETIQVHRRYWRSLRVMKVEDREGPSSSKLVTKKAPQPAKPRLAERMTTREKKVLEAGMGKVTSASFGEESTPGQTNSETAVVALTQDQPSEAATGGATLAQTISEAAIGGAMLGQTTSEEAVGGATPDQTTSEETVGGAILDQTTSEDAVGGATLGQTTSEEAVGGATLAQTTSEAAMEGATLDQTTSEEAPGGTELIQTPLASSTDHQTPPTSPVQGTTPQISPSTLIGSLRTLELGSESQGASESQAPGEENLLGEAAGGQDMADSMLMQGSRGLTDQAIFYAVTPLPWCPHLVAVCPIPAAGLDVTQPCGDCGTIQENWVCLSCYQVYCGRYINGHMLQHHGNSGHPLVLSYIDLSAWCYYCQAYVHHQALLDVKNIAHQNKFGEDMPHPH

A549 [6] = assay: Induction of apoptosis in human A549 cells assessed as apoptotic cells at 0.5 uM in absence of light irradiation incubated for 48 hrs by annexin V-FITC staining based flow cytometry; type: functional
[7] = Drug uptake in human A549 cells after 24 hrs by fluorescence spectrophotometer analysis relative to tala-porfin; type: ADME, cell-based; conditions: a549, 24 h
A549 [8] = assay: Induction of reactive oxygen species generation in human A549 cells assessed as mean count value at 0.01 uM incubated for 24 hrs by DCFH-DA staining based fluorescence microscopy assay; type: functional
A549 [9] = assay: Induction of reactive oxygen species generation in human A549 cells assessed as mean count value at 0.05 uM incubated for 24 hrs by DCFH-DA staining based fluorescence microscopy assay; type: functional
Histone deacetylase 1 [10] = biological target: T1, Histone deacetylase 1; assay: Inhibition of human recombinant HDAC1 in human A 549 cells assessed as effect on acetyl-H3 expression upto 2 uM measured after 24 hrs by western blot analysis; type: cell-based; conditions: A549, dose microM <=2, time 24.0 hrs
A549 [11] = assay: Induction of apoptosis in human A549 cells assessed as necrotic cells at 0.5 uM in absence of light irradiation incubated for 48 hrs by annexin V-FITC staining based flow cytometry; type: functional
[12] = Drug uptake in human A549 cells assessed as compound localization in mitochondria at 0.1 uM measured after 24 hrs by Mitotracker Green FM based laser confocal microscopy; type: ADME; conditions: a549, 24 h
[13] = Drug uptake in human A549 cells assessed as compound localization in lysosome at 0.1 uM measured after 24 hrs by Lysotracker Green DND-26 dye based laser confocal microscopy; type: ADME, subcellular; conditions: a549, 24 h
[14] = Drug uptake in human A549 cells assessed as compound localization in ER at 0.1 uM measured after 24 hrs by ERtracker Green dye based laser confocal microscopy; type: ADME, subcellular, Endoplasmic reticulum; conditions: a549, 24 h
[15] = Drug uptake in human A549 cells assessed as compound localization in golgi at 0.1 uM measured after 24 hrs by Golgi tracker Green dye based laser confocal microscopy; type: ADME, subcellular, Golgi body; conditions: a549, 24 h
A549 [16] = assay: Induction of autophagy in human A549 cells irradiated 10 j/cm2 at 0.1 uM after 24 hrs using fluorescent molecule DAPRed; type: functional
A549 [17] = assay: Induction of apoptosis in human A549 cells assessed as apoptotic cells at 0.1 uM in presence of light irradiation incubated for 48 hrs by annexin V-FITC staining based flow cytometry; type: functional
[18] = Drug uptake in human A549 cells assessed as compound localization in nucleus at 0.1 uM measured after 24 hrs by laser confocal microscopy; type: ADME, subcellular; conditions: a549, 24 h

T1 sequence (Q13547 whole entry): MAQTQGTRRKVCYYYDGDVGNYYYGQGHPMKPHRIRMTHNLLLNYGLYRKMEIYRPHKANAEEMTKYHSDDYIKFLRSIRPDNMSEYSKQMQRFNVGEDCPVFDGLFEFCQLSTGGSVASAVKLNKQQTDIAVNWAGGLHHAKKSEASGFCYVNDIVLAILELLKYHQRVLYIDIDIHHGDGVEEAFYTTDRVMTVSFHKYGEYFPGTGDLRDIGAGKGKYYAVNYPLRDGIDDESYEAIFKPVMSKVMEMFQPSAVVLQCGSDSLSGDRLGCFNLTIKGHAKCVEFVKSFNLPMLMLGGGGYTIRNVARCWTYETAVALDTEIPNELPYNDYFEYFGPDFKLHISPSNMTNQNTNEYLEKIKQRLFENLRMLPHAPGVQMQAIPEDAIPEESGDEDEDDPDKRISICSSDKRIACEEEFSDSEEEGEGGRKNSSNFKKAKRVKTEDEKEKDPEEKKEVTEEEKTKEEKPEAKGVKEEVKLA
Histone deacetylase 2, sequence (Q92769 whole entry): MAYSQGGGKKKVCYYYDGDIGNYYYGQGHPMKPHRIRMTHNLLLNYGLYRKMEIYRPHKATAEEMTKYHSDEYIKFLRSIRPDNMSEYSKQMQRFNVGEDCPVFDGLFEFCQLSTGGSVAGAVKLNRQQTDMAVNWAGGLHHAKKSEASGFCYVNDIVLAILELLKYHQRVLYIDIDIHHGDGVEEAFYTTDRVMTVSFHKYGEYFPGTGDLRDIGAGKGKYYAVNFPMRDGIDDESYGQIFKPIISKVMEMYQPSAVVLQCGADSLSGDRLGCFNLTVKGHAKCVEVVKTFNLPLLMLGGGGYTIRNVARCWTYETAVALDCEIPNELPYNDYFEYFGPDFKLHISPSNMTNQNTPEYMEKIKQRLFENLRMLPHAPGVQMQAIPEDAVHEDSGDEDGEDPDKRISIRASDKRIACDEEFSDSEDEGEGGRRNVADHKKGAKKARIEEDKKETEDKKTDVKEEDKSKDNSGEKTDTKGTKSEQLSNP

Structure (SMILES): C=Cc1c(C)c2cc3nc(c(C(=O)OC)c4[nH]c(cc5nc(cc1[nH]2)C(C)=C5CC)c(C)c4C(=O)OC)[C@@H](CCC(=O)Nc1ccc(C(=O)Nc2ccccc2N)cc1)[C@@H]3C
- IC50 (Histone deacetylase 1 [1]): 27000 nM
- IC50 (A549 [2]): 300 nM
- IC50 (HCT-116 [3]): 2790 nM
- IC50 (HCT-116 [4]): 6 nM
- IC50 (Histone deacetylase 2): 2650 nM
- IC50 [5]: > 100000 nM
- Activity (A549 [6]): 54.74%
- fold change (FC) [7]: 9
- Activity (A549 [8]): 770.81
- Activity (A549 [9]): 1760.9
- inhibition (Histone deacetylase 1 [10]): inactive
- Activity (A549 [11]): 45.22%
- Drug uptake [12]: Active
- Drug uptake [13]: Active
- Drug uptake [14]: Active
- Drug uptake [15]: Active
- Activity (A549 [16]): Active
- Activity (A549 [17]): 90.77%
- Drug uptake [18]: Not Active
